Columns and labels:
Assay in all cases: relative viability (nuclei count vs DMSO), 5 days (fraction); higher = more cells survive
[1] = compound: Cc1ccc(C(=O)Nc2ccc(CN3CCN(C)CC3)c(C(F)(F)F)c2)cc1C#Cc1cnc2cccnn12 [Ponatinib] + CC(C)C[C@H](NC(=O)[C@H](Cc1ccccc1)NC(=O)c1cnccn1)B(O)O [Bortezomib] (partner 0.002 µM)
Method in brief: (§1)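 A single step with final 0.05% Triton X-100, 1% formaldehyde and 1 ug/ml Hoechst fixed the cells and stained nuclei 5 days after treatment. Lung cancer cell lines in 1536-well plates had been treated by pin tool the day after seeding with one drug alone or a fixed anchor-drug dose plus five library-drug doses (not always all listed) in √10 steps, and nuclei were counted on 4× images. Relative viability is the ratio of nuclei in treated wells to nuclei in vehicle wells, taken as the median of duplicate plates.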

[2] = compound: Cc1ccc(C(=O)Nc2ccc(CN3CCN(C)CC3)c(C(F)(F)F)c2)cc1C#Cc1cnc2cccnn12 [Ponatinib] + C[C@]1(O)C[C@@H](c2nc(-c3ccc4ccc(-c5ccccc5)nc4c3)c3c(N)nccn32)C1 [Linsitinib] (partner 1 µM)
Method in brief: as §1

[3] = compound: Cc1ccc(Nc2nccc(N(C)c3ccc4c(C)n(C)nc4c3)n2)cc1S(N)(=O)=O [Pazopanib] + CC(=O)c1c(C)c2cnc(Nc3ccc(N4CCNCC4)cn3)nc2n(C2CCCC2)c1=O [Palbociclib] (partner 0.5 µM)
Method in brief: as §1

[4] = compound: Cc1ccc(Nc2nccc(N(C)c3ccc4c(C)n(C)nc4c3)n2)cc1S(N)(=O)=O [Pazopanib] + Cc1nc(Nc2ncc(C(=O)Nc3c(C)cccc3Cl)s2)cc(N2CCN(CCO)CC2)n1 [Dasatinib] (partner 0.075 µM)
Method in brief: as §1

Cell Line	relative viability ([1]; first compound 0.002 µM)	relative viability ([1]; first compound 0.006325 µM)	relative viability ([1]; first compound 0.06325 µM)	relative viability ([1]; first compound 0.2 µM)	relative viability ([2]; first compound 0.002 µM)	relative viability ([2]; first compound 0.006325 µM)	relative viability ([2]; first compound 0.06325 µM)	relative viability ([2]; first compound 0.2 µM)	relative viability ([3]; first compound 0.01 µM)	relative viability ([3]; first compound 0.03162 µM)	relative viability ([3]; first compound 0.1 µM)	relative viability ([3]; first compound 0.3162 µM)	relative viability ([3]; first compound 1 µM)	relative viability ([4]; first compound 0.01 µM)	relative viability ([4]; first compound 0.03162 µM)	relative viability ([4]; first compound 0.1 µM)	relative viability ([4]; first compound 0.3162 µM)	relative viability ([4]; first compound 1 µM)
HOP-62	0.728	0.571	0.597	0.701	0.902	0.663	0.868	0.773	0.436	0.472	0.424	0.493	0.46	0.554	0.713	0.681	0.659	0.718
LC-2-ad	0.964	1.01	0.911	0.875	0.802	0.728	0.644	0.555	0.552	0.459	0.56	0.45	0.487	0.445	0.555	0.575	0.792	0.535
LCLC-97TM1	0.309	0.818	0.74	0.483	–	0.218	–	0.197	–	0.202	0.212	0.205	0.264	0.771	0.854	0.888	0.847	0.785
LCLC-103H	1.05	1.12	1.23	1.25	0.952	1.15	1.15	0.889	0.409	0.517	0.495	0.439	0.5	0.314	0.472	0.495	0.451	0.459
LOU-NH91	0.399	0.543	0.557	0.568	0.995	0.966	0.977	0.942	0.511	0.502	0.564	0.538	0.547	0.49	0.523	0.559	0.603	0.565
LU99A	1.14	1.07	1.21	1.24	0.5	0.501	0.611	0.527	–	0.39	0.447	0.444	0.416	0.425	0.545	0.622	0.54	0.503
LXF-289	0.946	0.996	1	0.98	0.936	0.959	0.992	0.933	0.591	0.581	0.629	0.571	0.598	0.224	0.236	0.19	0.156	0.242
NCI-H23	0.942	1.04	1.15	0.853	0.501	0.602	0.705	0.608	0.42	0.531	0.614	0.594	0.586	0.722	0.852	0.94	0.869	0.894
NCI-H322M	1.19	1.27	1.44	1.21	0.854	0.897	1.03	0.819	0.495	0.522	0.478	0.482	0.55	0.265	0.258	0.257	0.275	0.277
NCI-H441	0.592	0.363	0.402	0.452	0.48	0.576	0.478	0.5	0.24	0.248	0.198	0.211	0.273	0.451	0.612	0.643	0.565	0.658
NCI-H460	1.01	0.98	1.06	0.974	0.74	0.795	1.1	0.744	0.212	0.287	0.122	0.0783	0.262	0.274	0.472	0.566	0.603	0.758
NCI-H520	0.623	0.83	0.874	0.439	0.773	1	0.867	0.628	0.185	0.23	0.244	0.224	0.188	0.142	0.183	0.213	0.145	0.25
NCI-H647	0.825	0.964	1.15	0.969	1.22	1.01	1.05	1.1	0.345	0.463	0.363	0.361	0.29	0.135	0.21	0.224	0.243	0.25
NCI-H650	0.536	0.695	0.575	0.703	0.641	0.83	0.809	0.743	0.344	0.381	0.355	0.337	0.315	0.398	0.511	0.449	0.427	0.482
NCI-H661	0.714	0.88	0.962	0.63	0.54	0.598	0.692	0.565	0.376	0.386	0.427	0.422	0.396	0.908	0.894	0.815	0.931	1.15
NCI-H727	0.625	0.856	0.851	0.824	0.268	0.328	0.378	0.173	0.662	–	0.634	0.597	0.718	0.402	0.378	0.394	0.444	0.413
NCI-H838	0.903	1.05	0.698	0.817	0.939	1.05	1.19	0.858	0.181	0.216	0.243	0.258	0.246	0.273	0.278	0.297	0.278	0.334
NCI-H1355	1.09	1.11	1.25	1.19	0.833	0.916	1.08	0.947	0.33	0.4	0.426	0.407	0.45	0.443	0.549	0.773	0.639	0.686

Cell Line	relative viability ([1]; first compound 0.002 µM)	relative viability ([1]; first compound 0.006325 µM)	relative viability ([1]; first compound 0.06325 µM)	relative viability ([1]; first compound 0.2 µM)	relative viability ([2]; first compound 0.002 µM)	relative viability ([2]; first compound 0.006325 µM)	relative viability ([2]; first compound 0.06325 µM)	relative viability ([2]; first compound 0.2 µM)	relative viability ([3]; first compound 0.01 µM)	relative viability ([3]; first compound 0.03162 µM)	relative viability ([3]; first compound 0.1 µM)	relative viability ([3]; first compound 0.3162 µM)	relative viability ([3]; first compound 1 µM)	relative viability ([4]; first compound 0.01 µM)	relative viability ([4]; first compound 0.03162 µM)	relative viability ([4]; first compound 0.1 µM)	relative viability ([4]; first compound 0.3162 µM)	relative viability ([4]; first compound 1 µM)
NCI-H1437	0.572	0.681	0.608	0.66	0.999	1.05	1.05	0.915	0.327	0.313	0.284	0.338	0.313	0.399	0.465	0.353	0.396	0.723
NCI-H1651	0.936	0.869	0.975	0.983	0.906	0.978	1.09	0.932	0.51	0.555	0.523	0.489	0.555	0.371	0.46	0.397	0.436	0.5
NCI-H1666	0.736	0.832	0.985	1.11	0.765	0.916	1.09	0.859	0.636	0.604	0.607	0.694	0.667	0.854	0.833	0.801	0.864	0.772
NCI-H1734	0.87	0.957	0.917	0.905	0.792	0.864	1	0.754	0.33	0.369	0.353	0.378	0.344	0.387	0.471	0.458	0.459	0.478
NCI-H1755	0.953	0.99	0.98	1.01	0.984	0.949	1.05	0.986	0.423	0.454	0.47	0.457	0.467	0.333	0.398	0.433	0.384	0.411
NCI-H1792	0.918	0.942	1.14	0.854	0.525	0.591	0.572	0.521	–	0.632	0.598	0.649	0.71	–	0.728	0.681	0.834	0.774
NCI-H1915	0.849	0.975	0.923	0.871	1.02	1.08	1.09	0.995	0.508	0.525	0.524	0.541	0.536	0.253	0.319	0.321	0.318	0.402
NCI-H1975	0.353	0.296	0.338	0.36	0.876	0.867	0.99	1.01	0.531	0.552	0.608	0.601	0.557	0.371	0.359	0.336	0.415	0.359
NCI-H1993	1.11	1.15	1.4	1.23	0.761	0.763	0.742	0.819	–	0.617	0.631	0.517	0.616	–	0.6	0.542	0.588	0.582
NCI-H2009	0.86	0.969	1.05	1	1.11	1.16	1.11	1.1	0.222	0.218	0.185	0.271	0.258	0.279	0.324	0.298	0.335	0.226
NCI-H2023	0.957	0.982	1.17	0.764	0.666	0.711	0.781	0.601	0.36	0.412	0.456	0.38	0.434	0.528	0.566	0.473	0.535	0.577
NCI-H2085	0.98	1.15	1.25	1.03	0.831	0.831	1.09	0.741	0.483	0.462	0.487	0.48	0.462	0.219	0.255	0.225	0.241	0.265
NCI-H2087	0.57	0.566	0.74	0.688	0.632	0.761	0.761	0.893	0.21	0.223	0.275	0.271	0.256	0.743	0.989	0.929	1.01	0.72
NCI-H2126	1.08	1.13	1.16	1.13	0.735	0.703	0.793	0.809	0.337	0.322	0.354	0.361	0.361	0.528	0.528	0.607	0.594	0.615
NCI-H2228	0.933	1.1	0.755	0.893	0.652	0.711	0.874	0.73	0.892	0.75	0.848	0.756	0.779	0.589	0.561	0.383	0.481	0.457
NCI-H2347	–	1.08	0.962	0.938	0.913	0.918	1.05	0.974	0.422	0.452	0.406	0.449	0.498	0.27	0.307	0.303	0.353	0.331
NCI-H2405	0.931	1.05	0.944	0.93	0.98	0.958	0.903	0.712	0.467	0.531	0.535	0.519	0.583	0.222	0.227	0.147	0.256	0.249
NCI-H3122	1.02	1.02	1.02	1	0.982	1.02	1.01	1.06	0.194	0.175	0.217	0.189	0.241	0.815	0.895	0.756	0.785	0.5

Source: the supplement of paper PMC10307832
